{"source": "patent US11684591B2", "about": "“Use of a GABAA receptor allosteric enhancer in medicine” (XI'AN LIBANG ZHAOXIN BIOTECHNOLOGY CO., LTD., priority 2018, dated 2023)", "key": {"[1]": {"tested_on": "GABAA, Chloride Channel, TBPS", "test": "[35S]TBPS radioligand receptor competitive binding test", "parameters": "species or system rats", "settings": "[35S]TBPS competitive binding", "procedure": "2. In Vitro GABAA Receptor Target Affinity Test\nA radioligand ([^35S] TBPS) receptor competitive binding test was used to evaluate the affinity of the test compound (10 uM) with GABAA receptors."}, "[2]": {"test": "Distribution in brain tissues after intravenous administration in rats (LC-MS/MS)", "format": "in vivo, SD rats", "procedure": "1. Comparative Test of the Distribution in Brain Tissues of Compound 1 and Dipropofol (3,3′, 5,5′-Tetraisopropyl-4,4′-Biphenol) after Intravenous Administration in Rats\n72 SD rats, weighing 200 to 220 g, were randomly divided into 12 groups (6 per time group), and fasted for 12 h before administration. A dose of 45 mg/kg was intravenously administered with Compound 1 or the dipropofol respectively, and the rates were sacrificed at 5 min, 15 min, 30 min, 1 h, 2 h and 4 h after the administration. The brain tissues were removed immediately, rinsed with ice-cold distilled water, blotted dry, and frozen at −40° C. for storage. The concentration of Compound 1 or the dipropofol in the brain tissues at different points in time after administration in rats was measured by LC-MS/MS, as shown in Table 1 and FIG. 1."}, "[3]": {"tested_on": "PTZ-induced tonic-clonic seizures", "test": "Antiepileptic test in rats with PTZ-induced seizures", "format": "in vivo, male SD rats", "parameters": "key to Seizure Intensity (total score of 7 animals): summed score: grade V = 5, IV = 4, III = 3, below III = 0", "settings": "45 mg/kg i.v.; for Number of episodes (animals), grade III / Number of episodes (animals), grade IV / Number of episodes (animals), grade V / Seizure Intensity (total score of 7 animals): n = 7", "procedure": "3. Antiepileptic Test of Compounds 1 and Dipropofol (3,3′, 5,5′-Tetraisopropyl-4,4′-Biphenol) in Rats with PTZ-Induced Seizures\nIn this test, male SD rats (Xi'an Jiaotong University), weighing 200 to 250 g, were used and intravenously administrated with 45 mg/kg of a Dipropofol injection, a Compound 1 injection, and blank solvent of the same volume. 1, 3, 5, 10, 15, 30, 60, 90 mins, and 120 mins after the intravenous administration, 70 mg/kg of PTZ was intraperitoneally injected in the rats to induce tonic-clonic seizures. 7 rats were used for each time point in each drug group. Rat seizure intensity was recorded in accordance with the Racine grading criteria in grade III to V seizure status. Scores were recorded according to the seizure intensity: 5 points for grade V, 4 points for grade IV, 3 points for grade III, and 0 point for below grade III."}, "[4]": {"settings": "PTZ 70 mg/kg i.p. 1 min after administration"}, "[5]": {"settings": "PTZ 70 mg/kg i.p. 3 min after administration"}, "[6]": {"settings": "PTZ 70 mg/kg i.p. 5 min after administration"}, "[7]": {"settings": "PTZ 70 mg/kg i.p. 10 min after administration"}, "[8]": {"settings": "PTZ 70 mg/kg i.p. 15 min after administration"}, "[9]": {"settings": "PTZ 70 mg/kg i.p. 30 min after administration"}, "[10]": {"settings": "PTZ 70 mg/kg i.p. 60 min after administration"}, "[11]": {"settings": "PTZ 70 mg/kg i.p. 90 min after administration"}, "[12]": {"settings": "PTZ 70 mg/kg i.p. 120 min after administration"}}}
{"smiles": "CCCc1cc(-c2cc(CCC)c(O)c(C(C)C)c2)cc(C(C)C)c1O", "note": "[Compound 1, 4,4′-dihydroxy-3,3′-diisopropyl-5,5′-dipropylbiphenyl]", "values": [{"measurement": "Affinity for the GABAA receptors (in words)", "setting": "[1]", "value": "high affinity for the GABAA receptors, which affinity is comparable to that of the dipropofol"}, {"measurement": "IC50", "setting": "[1]; rats, test concentration 30, 10, 3, 1, 0.3 uM", "value": 2930, "unit": "nM"}, {"measurement": "AUC0-4h in the brain tissues relative to that of the dipropofol", "setting": "[2]; 45 mg/kg i.v.", "value": "about 1.31 times"}, {"measurement": "Time at which concentration peaked in the brain tissues", "setting": "[2]; 45 mg/kg i.v.", "value": 15, "unit": "min"}, {"measurement": "Concentration in the brain tissues relative to that of the dipropofol", "setting": "[2]; 45 mg/kg i.v., 5 min after administration", "value": 2.75, "unit": "times"}, {"measurement": "concentration at 5 min", "setting": "[2]; SD, rat, brain, iv, 45 mg/kg i.v., 5 min after administration, average, read-out: Drug concentration in brain tissues", "value": 35200, "unit": "ng/g"}, {"measurement": "concentration at 15 min", "setting": "[2]; SD, rat, brain, iv, 45 mg/kg i.v., 15 min after administration, average, read-out: Drug concentration in brain tissues", "value": 42700, "unit": "ng/g"}, {"measurement": "concentration at 30 min", "setting": "[2]; SD, rat, brain, iv, 45 mg/kg i.v., 30 min after administration, average, read-out: Drug concentration in brain tissues", "value": 39800, "unit": "ng/g"}, {"measurement": "concentration at 1 h", "setting": "[2]; SD, rat, brain, iv, 45 mg/kg i.v., 1 h after administration, average, read-out: Drug concentration in brain tissues", "value": 32000, "unit": "ng/g"}, {"measurement": "concentration at 2 h", "setting": "[2]; SD, rat, brain, iv, 45 mg/kg i.v., 2 h after administration, average, read-out: Drug concentration in brain tissues", "value": 22700, "unit": "ng/g"}, {"measurement": "concentration at 4 h", "setting": "[2]; SD, rat, brain, iv, 45 mg/kg i.v., 4 h after administration, average, read-out: Drug concentration in brain tissues", "value": 7750, "unit": "ng/g"}, {"measurement": "Brain entry rate and brain intake amount compared with dipropofol", "setting": "[2]; same i.v. dose", "value": "significantly higher brain entry rate and brain intake amount than the dipropofol"}, {"measurement": "Number of episodes (animals), grade III", "setting": "[3]; [4]", "value": 2}, {"measurement": "Number of episodes (animals), grade IV", "setting": "[3]; [4]", "value": 2}, {"measurement": "Number of episodes (animals), grade V", "setting": "[3]; [4]", "value": 0}, {"measurement": "Seizure Intensity (total score of 7 animals)", "setting": "[3]; [4]", "value": 14}, {"measurement": "Number of episodes (animals), grade III", "setting": "[3]; [5]", "value": 0}, {"measurement": "Number of episodes (animals), grade IV", "setting": "[3]; [5]", "value": 0}, {"measurement": "Number of episodes (animals), grade V", "setting": "[3]; [5]", "value": 0}, {"measurement": "Seizure Intensity (total score of 7 animals)", "setting": "[3]; [5]", "value": 0}, {"measurement": "Number of episodes (animals), grade III", "setting": "[3]; [6]", "value": 0}, {"measurement": "Number of episodes (animals), grade IV", "setting": "[3]; [6]", "value": 0}, {"measurement": "Number of episodes (animals), grade V", "setting": "[3]; [6]", "value": 0}, {"measurement": "Seizure Intensity (total score of 7 animals)", "setting": "[3]; [6]", "value": 0}, {"measurement": "Number of episodes (animals), grade III", "setting": "[3]; [7]", "value": 0}, {"measurement": "Number of episodes (animals), grade IV", "setting": "[3]; [7]", "value": 0}, {"measurement": "Number of episodes (animals), grade V", "setting": "[3]; [7]", "value": 0}, {"measurement": "Seizure Intensity (total score of 7 animals)", "setting": "[3]; [7]", "value": 0}, {"measurement": "Number of episodes (animals), grade III", "setting": "[3]; [8]", "value": 0}, {"measurement": "Number of episodes (animals), grade IV", "setting": "[3]; [8]", "value": 0}, {"measurement": "Number of episodes (animals), grade V", "setting": "[3]; [8]", "value": 0}, {"measurement": "Seizure Intensity (total score of 7 animals)", "setting": "[3]; [8]", "value": 0}, {"measurement": "Number of episodes (animals), grade III", "setting": "[3]; [9]", "value": 0}, {"measurement": "Number of episodes (animals), grade IV", "setting": "[3]; [9]", "value": 0}, {"measurement": "Number of episodes (animals), grade V", "setting": "[3]; [9]", "value": 0}, {"measurement": "Seizure Intensity (total score of 7 animals)", "setting": "[3]; [9]", "value": 0}, {"measurement": "Number of episodes (animals), grade III", "setting": "[3]; [10]", "value": 0}, {"measurement": "Number of episodes (animals), grade IV", "setting": "[3]; [10]", "value": 0}, {"measurement": "Number of episodes (animals), grade V", "setting": "[3]; [10]", "value": 0}, {"measurement": "Seizure Intensity (total score of 7 animals)", "setting": "[3]; [10]", "value": 0}, {"measurement": "Number of episodes (animals), grade III", "setting": "[3]; [11]", "value": 0}, {"measurement": "Number of episodes (animals), grade IV", "setting": "[3]; [11]", "value": 0}, {"measurement": "Number of episodes (animals), grade V", "setting": "[3]; [11]", "value": 0}, {"measurement": "Seizure Intensity (total score of 7 animals)", "setting": "[3]; [11]", "value": 0}, {"measurement": "Number of episodes (animals), grade III", "setting": "[3]; [12]", "value": 0}, {"measurement": "Number of episodes (animals), grade IV", "setting": "[3]; [12]", "value": 0}, {"measurement": "Number of episodes (animals), grade V", "setting": "[3]; [12]", "value": 0}, {"measurement": "Seizure Intensity (total score of 7 animals)", "setting": "[3]; [12]", "value": 0}, {"measurement": "Time after administration for which the potency can be maintained", "setting": "[3]; rats", "value": "≥ 120", "unit": "min"}]}
